In US20220031800A1, “PEPTIDES FOR TREATING NON-EXUDATIVE MACULAR DEGENERATION AND OTHER DISORDERS OF THE EYE” (Allegro Pharmaceuticals, LLC, priority 2019, published 2022):
Square brackets hold non-standard residues; d marks the D form. Peptide text beside a SMILES is read from it. Cya = N[C@@H](CS(=O)(=O)O)C(=O)O

Tested on: study eye of subjects with intermediate non-exudative AMD
Assay: Best corrected visual acuity (BCVA, letters read) in Dry AMD study
Assay type: in vivo, human
Settings: for Proportion of subjects with gain of at least 8 BCVA letters read: post hoc
Protocol: The subjects in Groups 1 and 2 received the following treatments: Thus, subjects in Group 1 received an initial sham injection in the study eye followed by a single 1 mg dose of risuteganib in the study eye. The subjects in Group 2 received a total of two (2) doses of risuteganib (1 mg per dose) in the study eye. Numerous study assessments were conducted at various time points throughout the study. Included among these study assessments were; refractive eye examinations, determinations of BCVA AND low-luminance BCVA, Lanthony D-15 color vision test, measurement of intraocular pressure (IOP), Indirect ophthalmoscopy/dilated fundus examinations and spectral-domain optical coherence tomography (SD-OCT). Also, blood and saliva samples were obtained from each subject for genetic analysis. The above-listed study assessments were performed at the time points indicated in Table 1, below: For this study, a primary efficacy endpoint was deemed to be the percentage of population with an improvement in BCVA of at least 8 letters (1.5 lines) BCVA.

[1] = Week 4, Group 2 (1 mg IVT day 1 + wk 16), subset gain ≥8 letters at any week, n = 14
[2] = Week 4, Group 2 (1 mg IVT day 1 + wk 16), subset gain ≥8 letters at primary endpoint week, n = 12
[3] = Week 8, Group 2 (1 mg IVT day 1 + wk 16), subset gain ≥8 letters at any week, n = 14
[4] = Week 8, Group 2 (1 mg IVT day 1 + wk 16), subset gain ≥8 letters at primary endpoint week, n = 12
[5] = Week 12, Group 2 (1 mg IVT day 1 + wk 16), subset gain ≥8 letters at any week, n = 14
[6] = Week 12, Group 2 (1 mg IVT day 1 + wk 16), subset gain ≥8 letters at primary endpoint week, n = 12
[7] = Week 16, Group 2 (1 mg IVT day 1 + wk 16), subset gain ≥8 letters at any week, n = 14
[8] = Week 16, Group 2 (1 mg IVT day 1 + wk 16), subset gain ≥8 letters at primary endpoint week, n = 12
[9] = Week 20, Group 1 crossover (sham day 1, 1 mg IVT wk 16), subset gain ≥8 letters at any week, n = 3
[10] = Week 20, Group 1 crossover (sham day 1, 1 mg IVT wk 16), subset gain ≥8 letters at primary endpoint week, n = 2
[11] = Week 20, Group 2 (1 mg IVT day 1 + wk 16), subset gain ≥8 letters at any week, n = 14
[12] = Week 20, Group 2 (1 mg IVT day 1 + wk 16), subset gain ≥8 letters at primary endpoint week, n = 12
[13] = Week 24, Group 1 crossover (sham day 1, 1 mg IVT wk 16), subset gain ≥8 letters at any week, n = 3

C[C@@H](O)[C@H](NC(=O)[C@H](CS(=O)(=O)O)NC(=O)CNC(=O)[C@H](CCCNC(=N)N)NC(=O)CN)C(=O)N1CCC[C@H]1C(=O)O [risuteganib, Glycyl-L-arginylglycyl-3-sulfo-L-alanyl-L-threonyl-L-proline] (H-GRG[Cya]TP-OH)
Time of peak effect after treatment (BCVA, after each 1 mg intravitreal dose): 12 weeks | Proportion of subjects with gain of at least 8 BCVA letters read (Group 2, GA Subgroup (GA in central 6-mm subfield)): 40% | Proportion of subjects with gain of at least 8 BCVA letters read (Group 2, No GA Subgroup (no GA in central 6-mm subfield)): 80% | BCVA change in letters read, mean [1]: 4.0 letters read | BCVA change in letters read, median [1]: 3.0 letters read | BCVA letters read, mean [1]: 66.5 letters read | BCVA letters read, median [1]: 67.0 letters read | BCVA change in letters read, mean [2]: 4.1 letters read | BCVA change in letters read, median [2]: 3.0 letters read | BCVA letters read, mean [2]: 67.0 letters read | BCVA letters read, median [2]: 68.5 letters read | BCVA change in letters read, mean [3]: 5.8 letters read | BCVA change in letters read, median [3]: 5.5 letters read | BCVA letters read, mean [3]: 68.3 letters read | BCVA letters read, median [3]: 71.0 letters read | BCVA change in letters read, mean [4]: 5.6 letters read | BCVA change in letters read, median [4]: 5.5 letters read | BCVA letters read, mean [4]: 68.5 letters read | BCVA letters read, median [4]: 72.0 letters read | BCVA change in letters read, mean [5]: 7.1 letters read | BCVA change in letters read, median [5]: 5.5 letters read | BCVA letters read, mean [5]: 69.6 letters read | BCVA letters read, median [5]: 69.5 letters read | BCVA change in letters read, mean [6]: 7.7 letters read | BCVA change in letters read, median [6]: 5.5 letters read | BCVA letters read, mean [6]: 70.6 letters read | BCVA letters read, median [6]: 72.0 letters read | BCVA change in letters read, mean [7]: 6.4 letters read | BCVA change in letters read, median [7]: 8.0 letters read | BCVA letters read, mean [7]: 68.9 letters read | BCVA letters read, median [7]: 69.5 letters read | BCVA change in letters read, mean [8]: 6.3 letters read | BCVA change in letters read, median [8]: 8.0 letters read | BCVA letters read, mean [8]: 69.2 letters read | BCVA letters read, median [8]: 70.5 letters read | BCVA change in letters read, mean [9]: 2.0 letters read | BCVA change in letters read, median [9]: 0.0 letters read | BCVA letters read, mean [9]: 71.7 letters read | BCVA letters read, median [9]: 75.0 letters read | BCVA change in letters read, mean [10]: 0.0 letters read | BCVA change in letters read, median [10]: 0.0 letters read | BCVA letters read, mean [10]: 70.0 letters read | BCVA letters read, median [10]: 70.0 letters read | BCVA change in letters read, mean [11]: 9.8 letters read | BCVA change in letters read, median [11]: 10.0 letters read | BCVA letters read, mean [11]: 72.3 letters read | BCVA letters read, median [11]: 74.5 letters read | BCVA change in letters read, mean [12]: 11.3 letters read | BCVA change in letters read, median [12]: 10.0 letters read | BCVA letters read, mean [12]: 74.2 letters read | BCVA letters read, median [12]: 75.0 letters read | BCVA change in letters read, mean [13]: 8.7 letters read | BCVA change in letters read, median [13]: 10.0 letters read | BCVA letters read, mean [13]: 78.3 letters read | BCVA letters read, median [13]: 79.0 letters read
